Activity calls are given as the source filed them. The calls are words filed in the database; no cut-off is given here.
Experiments:
Histone deacetylase 4 = Histone deacetylase 4 (Homo sapiens, UniProt P56524); experiment: Inhibition of HDAC4 (unknown origin) preincubated for 10 mins followed by substrate addition by fluorescence based assay
RPMI-8226 [1] = experiment: Induction of cell cycle arrest at G1 phase in human RPMI-8226 cells at 0.5 uM incubated for 24 hrs by PI staining based flow cytometry (reference value: 19.2 %); assay type: functional
[2] = AUC (0 to t) in mouse at 10 mg/kg, po; assay type: ADME, organism-based; conditions: in vivo
RPMI-8226 [3] = experiment: Induction of apoptosis in human RPMI-8226 cells assessed as necrotic cells at 0.1 uM incubated for 24 hrs by Annexin V-FITC/PI staining based flow cytometry (reference value: 0.90 %); assay type: functional
RPMI-8226 [4] = experiment: Induction of apoptosis in human RPMI-8226 cells assessed as viable cells at 0.1 uM incubated for 24 hrs by Annexin V-FITC/PI staining based flow cytometry (reference value: 90.98 %); assay type: functional; conditions: read-out: Activity
[5] = Toxicity in Balb/c nude mouse xenografted with human RPMI-8226 cells assessed as body weight loss at 10 to 40 mg/kg, po qd for 21 days administered consecutively; assay type: organism-based; conditions: in vivo, 504 h, dose 10-40 mg/kg, time 21 day
[6] = Clearance in mouse at 1 mg/kg, iv; assay type: ADME, organism-based; conditions: in vivo
[7] = Toxicity in Balb/c nude mouse xenografted with human RPMI-8226 cells assessed as adverse effect on serum uric acid level at 10 to 40 mg/kg, po qd for 21 days administered consecutively; assay type: organism-based; conditions: in vivo, 504 h, dose 10-40 mg/kg, time 21 day
RPMI-8226 [8] = experiment: Induction of apoptosis in human RPMI-8226 cells assessed as early apoptotic cells at 0.1 uM incubated for 24 hrs by Annexin V-FITC/PI staining based flow cytometry (reference value: 5.34 %); assay type: functional
RPMI-8226 [9] = experiment: Induction of apoptosis in human RPMI-8226 cells assessed as increase in APAF-1 expression at 0.1 to 2.5 uM incubated for 24 hrs by Western blot analysis; assay type: functional, cell-based; conditions: dose 0.1-2.5 µM
RPMI-8226 [10] = experiment: Induction of apoptosis in human RPMI-8226 cells assessed as decrease in […] expression at 0.1 to 2.5 uM incubated for 24 hrs by Western blot analysis; assay type: functional, cell-based; conditions: dose 0.1-2.5 µM
RPMI-8226 [11] = experiment: Induction of cell cycle arrest at S phase in human RPMI-8226 cells at 0.5 uM incubated for 24 hrs by PI staining based flow cytometry (reference value: 58.5 %); assay type: functional
RPMI-8226 [12] = experiment: Induction of apoptosis in human RPMI-8226 cells assessed as late apoptotic cells at 0.5 uM incubated for 24 hrs by Annexin V-FITC/PI staining based flow cytometry (reference value: 2.78 %); assay type: functional
RPMI-8226 [13] = experiment: Induction of apoptosis in human RPMI-8226 cells assessed as increase in caspase-3 expression at 0.1 to 2.5 uM incubated for 24 hrs by Western blot analysis; assay type: functional, cell-based; conditions: dose 0.1-2.5 µM
MDA-MB-468 = experiment: cells; conditions: Homo sapiens, MDA-MB-468, 24 h
[14] = Toxicity in Balb/c nude mouse xenografted with human RPMI-8226 cells assessed as adverse effect on serum AST level at 10 to 40 mg/kg, po qd for 21 days administered consecutively; assay type: organism-based; conditions: in vivo, 504 h, dose 10-40 mg/kg, time 21 day
RPMI-8226 [15] = experiment: Induction of apoptosis in human RPMI-8226 cells assessed as early apoptotic cells at 0.5 uM incubated for 24 hrs by Annexin V-FITC/PI staining based flow cytometry (reference value: 5.34 %); assay type: functional
[16] = Volume of distribution at steady state in mouse at 1 mg/kg, iv; assay type: ADME, organism-based; conditions: in vivo, read-out: Vdss
Histone deacetylase 7 = molecular target: T1, Histone deacetylase 7 (Homo sapiens, UniProt Q8WUI4); experiment: Inhibition of HDAC7 (unknown origin) preincubated for 10 mins followed by substrate addition by fluorescence based assay
T1 sequence (Q8WUI4 whole entry): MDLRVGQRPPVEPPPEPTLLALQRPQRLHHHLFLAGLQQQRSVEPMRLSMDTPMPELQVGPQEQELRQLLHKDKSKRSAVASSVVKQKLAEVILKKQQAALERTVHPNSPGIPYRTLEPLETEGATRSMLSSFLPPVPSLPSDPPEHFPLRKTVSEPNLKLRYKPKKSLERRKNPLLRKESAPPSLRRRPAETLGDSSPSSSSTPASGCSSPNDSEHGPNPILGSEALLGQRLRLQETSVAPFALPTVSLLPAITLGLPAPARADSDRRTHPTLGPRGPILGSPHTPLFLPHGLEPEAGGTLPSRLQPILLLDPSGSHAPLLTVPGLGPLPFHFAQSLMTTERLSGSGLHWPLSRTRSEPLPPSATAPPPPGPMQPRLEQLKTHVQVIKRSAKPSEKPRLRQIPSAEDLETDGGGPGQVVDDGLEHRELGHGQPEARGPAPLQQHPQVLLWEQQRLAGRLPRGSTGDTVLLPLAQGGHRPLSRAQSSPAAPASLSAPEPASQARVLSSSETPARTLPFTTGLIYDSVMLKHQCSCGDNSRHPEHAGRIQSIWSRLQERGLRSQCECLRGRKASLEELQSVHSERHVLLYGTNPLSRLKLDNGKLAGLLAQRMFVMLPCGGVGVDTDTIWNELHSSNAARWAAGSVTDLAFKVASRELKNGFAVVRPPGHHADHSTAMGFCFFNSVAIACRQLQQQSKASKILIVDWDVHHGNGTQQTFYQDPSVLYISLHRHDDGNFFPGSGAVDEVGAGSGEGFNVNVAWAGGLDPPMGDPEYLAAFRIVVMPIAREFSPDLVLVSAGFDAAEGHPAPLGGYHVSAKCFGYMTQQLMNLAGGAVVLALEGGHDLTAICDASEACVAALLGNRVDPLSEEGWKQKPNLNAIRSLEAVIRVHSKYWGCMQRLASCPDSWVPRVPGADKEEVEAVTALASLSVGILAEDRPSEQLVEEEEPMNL

[17] = Toxicity in Balb/c nude mouse xenografted with human RPMI-8226 cells assessed as adverse effect on lung at 10 to 40 mg/kg, po qd for 21 days administered consecutively by H and E staining based analysis; assay type: organism-based; conditions: in vivo, 504 h, dose 10-40 mg/kg, time 21 day
[18] = Toxicity in Balb/c nude mouse xenografted with human RPMI-8226 cells assessed as adverse effect on serum total protein level at 10 to 40 mg/kg, po qd for 21 days administered consecutively; assay type: organism-based; conditions: in vivo, 504 h, dose 10-40 mg/kg, time 21 day
[19] = Half life in mouse at 10 mg/kg, po; assay type: ADME, organism-based; conditions: in vivo
SGC-7901 = experiment: Cytotoxicity against human SGC-7901 cells assessed as inhibition of cell viability incubated for 24 hrs by CCK8 assay; assay type: functional, cell-based; conditions: SGC-7901, 24 h
RPMI-8226 [20] = experiment: Upregulation of Ac-alpha-tubulin expression in human RPMI-8226 cells at 0.1 uM incubated for 24 hrs by Western blot analysis; assay type: functional, cell-based
[21] = AUC (0 to t) in mouse at 1 mg/kg, iv; assay type: ADME, organism-based; conditions: in vivo
Histone deacetylase 2 = Histone deacetylase 2 (Homo sapiens, UniProt Q92769); experiment: Inhibition of HDAC2 (unknown origin) preincubated for 10 mins followed by substrate addition by fluorescence based assay
Histone deacetylase 5 = Histone deacetylase 5 (Homo sapiens, UniProt Q9UQL6); experiment: Inhibition of HDAC5 (unknown origin) preincubated for 10 mins followed by substrate addition by fluorescence based assay
Sequence of Histone deacetylase 5 (Q9UQL6 whole entry): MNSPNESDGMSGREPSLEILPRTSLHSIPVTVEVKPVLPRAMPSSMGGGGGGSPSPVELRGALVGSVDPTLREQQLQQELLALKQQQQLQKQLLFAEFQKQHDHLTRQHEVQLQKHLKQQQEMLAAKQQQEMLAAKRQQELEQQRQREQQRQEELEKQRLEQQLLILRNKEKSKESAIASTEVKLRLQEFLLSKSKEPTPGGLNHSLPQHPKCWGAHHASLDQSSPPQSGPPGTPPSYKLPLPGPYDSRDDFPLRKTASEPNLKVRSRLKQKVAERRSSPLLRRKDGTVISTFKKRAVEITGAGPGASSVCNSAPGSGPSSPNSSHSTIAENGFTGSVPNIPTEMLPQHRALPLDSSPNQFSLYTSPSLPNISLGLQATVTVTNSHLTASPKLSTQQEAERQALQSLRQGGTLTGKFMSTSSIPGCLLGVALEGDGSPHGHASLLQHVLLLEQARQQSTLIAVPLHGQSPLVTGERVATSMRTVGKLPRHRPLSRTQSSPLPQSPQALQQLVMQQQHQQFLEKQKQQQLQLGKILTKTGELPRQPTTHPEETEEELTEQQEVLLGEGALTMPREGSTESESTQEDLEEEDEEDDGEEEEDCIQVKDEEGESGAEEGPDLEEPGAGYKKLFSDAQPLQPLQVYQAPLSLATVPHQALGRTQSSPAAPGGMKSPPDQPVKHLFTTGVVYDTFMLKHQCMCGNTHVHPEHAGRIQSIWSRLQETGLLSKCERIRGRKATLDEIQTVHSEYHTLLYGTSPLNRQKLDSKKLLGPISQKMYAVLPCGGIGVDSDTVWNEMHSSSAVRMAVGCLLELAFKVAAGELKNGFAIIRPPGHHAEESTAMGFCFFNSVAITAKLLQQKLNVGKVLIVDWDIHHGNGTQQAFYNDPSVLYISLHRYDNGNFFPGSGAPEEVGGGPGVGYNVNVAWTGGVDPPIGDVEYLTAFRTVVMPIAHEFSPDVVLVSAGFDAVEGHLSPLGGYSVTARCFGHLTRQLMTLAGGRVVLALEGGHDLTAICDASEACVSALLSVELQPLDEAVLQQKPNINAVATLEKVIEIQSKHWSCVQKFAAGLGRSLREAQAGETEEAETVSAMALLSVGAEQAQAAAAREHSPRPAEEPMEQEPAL

Sequence of Histone deacetylase 4 (P56524 whole entry): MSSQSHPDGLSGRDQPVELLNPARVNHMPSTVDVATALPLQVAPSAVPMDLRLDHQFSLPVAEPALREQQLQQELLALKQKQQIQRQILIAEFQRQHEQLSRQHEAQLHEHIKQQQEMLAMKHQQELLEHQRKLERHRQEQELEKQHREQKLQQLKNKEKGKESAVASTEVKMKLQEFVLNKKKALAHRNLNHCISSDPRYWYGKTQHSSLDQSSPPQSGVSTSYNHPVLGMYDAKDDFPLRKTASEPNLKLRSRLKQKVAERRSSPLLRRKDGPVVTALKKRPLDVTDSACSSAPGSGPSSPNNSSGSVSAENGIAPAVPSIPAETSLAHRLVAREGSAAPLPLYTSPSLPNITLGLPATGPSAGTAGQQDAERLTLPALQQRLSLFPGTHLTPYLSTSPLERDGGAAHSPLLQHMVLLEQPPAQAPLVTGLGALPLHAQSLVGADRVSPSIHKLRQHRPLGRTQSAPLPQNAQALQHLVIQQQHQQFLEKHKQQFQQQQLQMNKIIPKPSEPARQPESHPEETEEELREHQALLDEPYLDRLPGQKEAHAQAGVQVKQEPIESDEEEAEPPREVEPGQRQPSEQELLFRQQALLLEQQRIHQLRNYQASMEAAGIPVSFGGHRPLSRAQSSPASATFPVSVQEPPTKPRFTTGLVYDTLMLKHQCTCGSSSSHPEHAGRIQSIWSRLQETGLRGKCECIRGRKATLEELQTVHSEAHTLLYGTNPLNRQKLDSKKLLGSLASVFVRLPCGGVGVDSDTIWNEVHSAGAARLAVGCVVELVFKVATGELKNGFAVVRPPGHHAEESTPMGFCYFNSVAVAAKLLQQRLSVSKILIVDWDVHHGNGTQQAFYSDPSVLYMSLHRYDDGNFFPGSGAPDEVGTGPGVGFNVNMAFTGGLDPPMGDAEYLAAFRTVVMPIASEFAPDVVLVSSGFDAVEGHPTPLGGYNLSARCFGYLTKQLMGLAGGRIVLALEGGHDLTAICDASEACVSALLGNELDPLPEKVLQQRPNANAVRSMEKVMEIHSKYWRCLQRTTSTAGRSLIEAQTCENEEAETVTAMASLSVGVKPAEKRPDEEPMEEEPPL
Sequence of Histone deacetylase 2 (Q92769 whole entry): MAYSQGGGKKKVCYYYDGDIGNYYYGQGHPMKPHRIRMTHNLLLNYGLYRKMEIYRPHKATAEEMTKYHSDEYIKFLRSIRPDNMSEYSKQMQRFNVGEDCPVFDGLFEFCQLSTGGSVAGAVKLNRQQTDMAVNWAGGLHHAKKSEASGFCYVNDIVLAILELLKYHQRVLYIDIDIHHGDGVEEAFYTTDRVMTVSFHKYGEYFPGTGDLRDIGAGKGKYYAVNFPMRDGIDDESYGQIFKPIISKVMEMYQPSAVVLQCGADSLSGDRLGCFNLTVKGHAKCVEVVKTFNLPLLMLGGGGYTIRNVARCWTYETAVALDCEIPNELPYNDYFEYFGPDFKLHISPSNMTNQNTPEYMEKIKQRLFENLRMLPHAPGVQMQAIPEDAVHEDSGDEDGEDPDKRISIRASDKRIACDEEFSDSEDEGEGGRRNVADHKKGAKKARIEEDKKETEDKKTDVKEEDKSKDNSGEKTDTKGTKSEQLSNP

Question: For Cn1c([C@@H](Cc2ccccc2)NCc2ccccc2)nc2cc(C(=O)NO)ccc21, which IC50 (Histone deacetylase 4) is on record?
Answer: 1930 nM

Question: And the Activity (RPMI-8226 [1])?
Answer: 24.5%

Question: What about the AUC(0-t) [2] of the same compound?
Answer: 52.1 ng·h/mL

Question: And the Activity (RPMI-8226 [3])?
Answer: 0.45%

Question: And the viability at 0.1 µM (RPMI-8226 [4])?
Answer: 82.5%

Question: And the Activity [5]?
Answer: Non-Toxic

Question: And the clearance [6]?
Answer: 82.9 mL/min/kg

Question: What about the Activity [7] of the same compound?
Answer: Non-Toxic

Question: What about the Activity (RPMI-8226 [8]) of the same compound?
Answer: 12.79%

Question: What about the Activity (RPMI-8226 [9]) of the same compound?
Answer: Active

Question: And the Activity (RPMI-8226 [10])?
Answer: Active

Question: What about the Activity (RPMI-8226 [11]) of the same compound?
Answer: 43.3%

Question: And the Activity (RPMI-8226 [12])?
Answer: 4.24%

Question: And the Activity (RPMI-8226 [13])?
Answer: Active

Question: What about the IC50 (MDA-MB-468) of the same compound?
Answer: > 50000 nM

Question: And the Activity [14]?
Answer: Non-Toxic

Question: And the Activity (RPMI-8226 [15])?
Answer: 14.04%

Question: And the Vd [16]?
Answer: 2.29 L/kg

Question: And the IC50 (Histone deacetylase 7)?
Answer: 1230 nM

Question: And the Activity [17]?
Answer: Non-Toxic

Question: What about the Activity [18] of the same compound?
Answer: Non-Toxic

Question: And the half-life [19]?
Answer: 20 min

Question: What about the IC50 (SGC-7901) of the same compound?
Answer: > 50000 nM

Question: And the Activity (RPMI-8226 [20])?
Answer: inactive

Question: And the AUC(0-t) [21]?
Answer: 202 ng·h/mL

Question: And the IC50 (Histone deacetylase 2)?
Answer: 1790 nM

Question: And the IC50 (Histone deacetylase 5)?
Answer: 2120 nM

Reference: ChEMBL document CHEMBL5634123, “Design and synthesis of 1H-benzo[d]imidazole selective HDAC6 inhibitors with potential therapy for multiple myeloma” (Eur J Med Chem, 2023)
